# Laboratory results reported in US10336732B2, “1-heterocyclyl isochromanyl compounds and analogs for treating CNS disorders” (Sunovion Pharmaceuticals Inc., priority 2015, dated 2019).
# System: mice
# Test: Neuropharmacological assay (SmartCube), behavioral signature of compound-treated mice
# Format: in vivo
# Details: i.p. 15 min before behavioral test, most efficacious dose(s) of 3 doses
# Summary of the method: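 Read-out is an automated video-based behavioral signature, scored as per-class probabilities (e.g., anxiolytic, antidepressant) against reference compounds. Dosing was i.p. at three doses, 15 min pre-test, in NMP, polyethylene glycol and propylene glycol. Values shown are from the most efficacious dose(s).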
SMILES,AD: ADHD (probability that behavioral signature matches class),AG: analgesic (probability that behavioral signature matches class),AX: anxiolytic (probability that behavioral signature matches class),CE: cognitive enhancer (probability that behavioral signature matches class),DP: anti-depressant (probability that behavioral signature matches class),HA: hallucinogen (probability that behavioral signature matches class),MS: mood stabilizer (probability that behavioral signature matches class),PS: anti-psychotic (probability that behavioral signature matches class),SD: sedative hypnotic (probability that behavioral signature matches class),UN: uncharacterized CNS activity (probability that behavioral signature matches class)
"Fc1cccc2c1CCO[C@H]2[C@H]1CCCN1 [Compound I-15, (R)-2-((R)-5-fluoroisochroman-1-yl)pyrrolidine]",+ (LOQ ≤ + <5%),++ (5% ≤ ++ <25%),+++ (25% ≤ +++ <50%),++ (5% ≤ ++ <25%),++ (5% ≤ ++ <25%),+ (LOQ ≤ + <5%),+ (LOQ ≤ + <5%),++ (5% ≤ ++ <25%),+ (LOQ ≤ + <5%),+ (LOQ ≤ + <5%)
"c1ccc2c(c1)CCO[C@@H]2[C@@H]1CCN1 [Compound I-79, (S)-2-((S)-isochroman-1-yl)azetidine]",++ (5% ≤ ++ <25%),++ (5% ≤ ++ <25%),+++ (25% ≤ +++ <50%),++ (5% ≤ ++ <25%),++ (5% ≤ ++ <25%),+ (LOQ ≤ + <5%),++ (5% ≤ ++ <25%),+++ (25% ≤ +++ <50%),+ (LOQ ≤ + <5%),+ (LOQ ≤ + <5%)
"Fc1ccc2c(c1)CO[C@H]2[C@@H]1CCCN1 [Compound I-119, (S)-2-((R)-5-fluoro-1,3-dihydroisobenzofuran-1-yl)pyrrolidine]",+ (LOQ ≤ + <5%),+++ (25% ≤ +++ <50%),++ (5% ≤ ++ <25%),++ (5% ≤ ++ <25%),++ (5% ≤ ++ <25%),+ (LOQ ≤ + <5%),+ (LOQ ≤ + <5%),+++ (25% ≤ +++ <50%),+ (LOQ ≤ + <5%),+ (LOQ ≤ + <5%)
"CC1(C)CN[C@@H]([C@@H]2OCCc3ccccc32)C1 [Compound I-61, (R)-2-((R)-isochroman-1-yl)-4,4-dimethylpyrrolidine]",+ (LOQ ≤ + <5%),+++ (25% ≤ +++ <50%),++ (5% ≤ ++ <25%),+ (LOQ ≤ + <5%),++ (5% ≤ ++ <25%),+ (LOQ ≤ + <5%),++ (5% ≤ ++ <25%),++ (5% ≤ ++ <25%),+ (LOQ ≤ + <5%),+ (LOQ ≤ + <5%)
"N#Cc1cccc2c1[C@H]([C@@H]1CCCN1)OCC2 [Compound I-38, (R)-1-((S)-pyrrolidin-2-yl)isochroman-8-carbonitrile]",+ (LOQ ≤ + <5%),++ (5% ≤ ++ <25%),++ (5% ≤ ++ <25%),+ (LOQ ≤ + <5%),++ (5% ≤ ++ <25%),+ (LOQ ≤ + <5%),+ (LOQ ≤ + <5%),+ (LOQ ≤ + <5%),+ (LOQ ≤ + <5%),+ (LOQ ≤ + <5%)
"c1ccc2c(c1)CCCO[C@H]2[C@@H]1CCCN1 [Compound I-98, (S)-2-((R)-1,3,4,5-tetrahydrobenzo[c]oxepin-1-yl)pyrrolidine]",+ (LOQ ≤ + <5%),+ (LOQ ≤ + <5%),++ (5% ≤ ++ <25%),+ (LOQ ≤ + <5%),+++ (25% ≤ +++ <50%),+ (LOQ ≤ + <5%),++ (5% ≤ ++ <25%),+++ (25% ≤ +++ <50%),++ (5% ≤ ++ <25%),+ (LOQ ≤ + <5%)
"CC1(C)Cc2ccccc2[C@@H]([C@@H]2CCCN2)O1 [Compound I-65, (S)-2-((S)-3,3-dimethylisochroman-1-yl)pyrrolidine]",+ (LOQ ≤ + <5%),+++ (25% ≤ +++ <50%),++ (5% ≤ ++ <25%),++ (5% ≤ ++ <25%),++ (5% ≤ ++ <25%),+ (LOQ ≤ + <5%),+ (LOQ ≤ + <5%),++ (5% ≤ ++ <25%),++ (5% ≤ ++ <25%),+ (LOQ ≤ + <5%)
"c1ccc2c(c1)CCO[C@@H]2[C@H]1CCCN1 [Compound I-20, (R)-2-((S)-isochroman-1-yl)pyrrolidine]",+ (LOQ ≤ + <5%),++ (5% ≤ ++ <25%),++ (5% ≤ ++ <25%),++ (5% ≤ ++ <25%),++ (5% ≤ ++ <25%),+ (LOQ ≤ + <5%),++ (5% ≤ ++ <25%),++++ (50% ≤ ++++),++ (5% ≤ ++ <25%),+++ (25% ≤ +++ <50%)
"Cc1cccc2c1[C@@H]([C@@H]1CCCN1)OCCC2 [Compound I-101, (S)-2-((S)-9-methyl-1,3,4,5-tetrahydrobenzo[c]oxepin-1-yl)pyrrolidine]",+ (LOQ ≤ + <5%),+ (LOQ ≤ + <5%),++ (5% ≤ ++ <25%),+ (LOQ ≤ + <5%),++ (5% ≤ ++ <25%),+ (LOQ ≤ + <5%),+ (LOQ ≤ + <5%),+ (LOQ ≤ + <5%),+ (LOQ ≤ + <5%),+ (LOQ ≤ + <5%)
"Fc1ccc2c(c1)CCCO[C@H]2[C@@H]1CCCN1 [Compound I-111, (S)-2-((R)-7-fluoro-1,3,4,5-tetrahydrobenzo[c]oxepin-1-yl)pyrrolidine]",+ (LOQ ≤ + <5%),++ (5% ≤ ++ <25%),++ (5% ≤ ++ <25%),++ (5% ≤ ++ <25%),++ (5% ≤ ++ <25%),+ (LOQ ≤ + <5%),+ (LOQ ≤ + <5%),++++ (50% ≤ ++++),++ (5% ≤ ++ <25%),+++ (25% ≤ +++ <50%)
"Fc1ccc2c(c1)CCO[C@@H]2[C@@H]1CCCN1 [Compound I-10, (S)-2-((S)-6-fluoroisochroman-1-yl)pyrrolidine]",+ (LOQ ≤ + <5%),++ (5% ≤ ++ <25%),++ (5% ≤ ++ <25%),++ (5% ≤ ++ <25%),++ (5% ≤ ++ <25%),+ (LOQ ≤ + <5%),+ (LOQ ≤ + <5%),++ (5% ≤ ++ <25%),+ (LOQ ≤ + <5%),+ (LOQ ≤ + <5%)

# Same assay, conditions: i.p. 15 min before behavioral test, most efficacious dose(s) of 3 doses
row,SMILES,XG: anxiogenic (probability that behavioral signature matches class)
1,"Fc1cccc2c1CCO[C@H]2[C@H]1CCCN1 [Compound I-15, (R)-2-((R)-5-fluoroisochroman-1-yl)pyrrolidine]",+ (LOQ ≤ + <5%)
2,"c1ccc2c(c1)CCO[C@@H]2[C@@H]1CCN1 [Compound I-79, (S)-2-((S)-isochroman-1-yl)azetidine]",+ (LOQ ≤ + <5%)
3,"Fc1ccc2c(c1)CO[C@H]2[C@@H]1CCCN1 [Compound I-119, (S)-2-((R)-5-fluoro-1,3-dihydroisobenzofuran-1-yl)pyrrolidine]",+ (LOQ ≤ + <5%)
4,"CC1(C)CN[C@@H]([C@@H]2OCCc3ccccc32)C1 [Compound I-61, (R)-2-((R)-isochroman-1-yl)-4,4-dimethylpyrrolidine]",++ (5% ≤ ++ <25%)
5,"N#Cc1cccc2c1[C@H]([C@@H]1CCCN1)OCC2 [Compound I-38, (R)-1-((S)-pyrrolidin-2-yl)isochroman-8-carbonitrile]",+ (LOQ ≤ + <5%)
6,"c1ccc2c(c1)CCCO[C@H]2[C@@H]1CCCN1 [Compound I-98, (S)-2-((R)-1,3,4,5-tetrahydrobenzo[c]oxepin-1-yl)pyrrolidine]",+ (LOQ ≤ + <5%)
7,"CC1(C)Cc2ccccc2[C@@H]([C@@H]2CCCN2)O1 [Compound I-65, (S)-2-((S)-3,3-dimethylisochroman-1-yl)pyrrolidine]",+ (LOQ ≤ + <5%)
8,"c1ccc2c(c1)CCO[C@@H]2[C@H]1CCCN1 [Compound I-20, (R)-2-((S)-isochroman-1-yl)pyrrolidine]",+ (LOQ ≤ + <5%)
9,"Cc1cccc2c1[C@@H]([C@@H]1CCCN1)OCCC2 [Compound I-101, (S)-2-((S)-9-methyl-1,3,4,5-tetrahydrobenzo[c]oxepin-1-yl)pyrrolidine]",+ (LOQ ≤ + <5%)
10,"Fc1ccc2c(c1)CCCO[C@H]2[C@@H]1CCCN1 [Compound I-111, (S)-2-((R)-7-fluoro-1,3,4,5-tetrahydrobenzo[c]oxepin-1-yl)pyrrolidine]",+ (LOQ ≤ + <5%)
11,"Fc1ccc2c(c1)CCO[C@@H]2[C@@H]1CCCN1 [Compound I-10, (S)-2-((S)-6-fluoroisochroman-1-yl)pyrrolidine]",+ (LOQ ≤ + <5%)
